The nature of data set [1]: AlamarBlue cytotoxicity assay, MCF-10A. To be noted: human, 72 h. In kind it is cell-based, human. On the procedure:
(§1) AlamarBlue Cytotoxicity Assay
(§2) MDA-MB-231, MCF-10A and HCT116. Viable cells were counted with a hemocytometer immediately before each experiment . Experiments were done in triplicate. First, 100 μL of MDA-MB-231 cells or MCF-10A cells at the density of 50,000 cells/mL was seeded in a 96-well plate (5,000 cells/well) and then incubated at 37 °C and 5% CO2 for 24 h. The compounds were dissolved in DMSO (dimethyl sulfoxide) to make drug stocks (10 mM). The stock solutions were diluted with the complete DMEM high glucose culture medium to make a series of gradient fresh working solutions right before each test. Subsequently, the cells were treated with 100 μL of the freshly made gradient working solution in a total volume of 200 μL/well for 72 h. After that, the media were discarded and 200 μL of the fresh complete medium containing 10% of AlamarBlue (resazurin) stock solution was added to each well. The plate was then incubated at 37 °C and 5% CO2 for another 3 h. Emission of each well at 620 nm was detected by a microplate reader (BioTek Synergy H1) at excitation 580 nm. […]
(§3) Microplate Reader. The percentage of viability compared to the negative control (DMSO-treated cells) […]
(§4) was determined. […]
(In general: Resazurin is reduced to fluorescent resorufin, in cell work by metabolically active cells.)

In the next data set the test system is MCF7. Put plainly: MTT cytotoxicity assay, MCF7. In kind it is cell-based, human. To be noted: Homo sapiens; MCF7, 72 h, MTT; read-out: Cytotoxicity (IC50). How it is done: Two human breast cancer cell lines (MDA-MB-231 and MCF7) and one human breast non-tumorigenic epithelial cell line (MCF-10A) were maintained in a DMEM high glucose culture medium supplemented with 10% fetal bovine serum (FBS) and 2 mM L-glutamine. The cells were grown in a humidified atmosphere of 5% CO2 and 95% air at 37 °C . The culture medi um w as changed every 2–4 days depending on cell density. Cell cultures were passaged once a week using 0.125% trypsin-EDTA to detach the cells from culture flasks/dishes.
The human colorectal cancer cell line HCT116 was maintained in McCoy’s 5A (modified) medium supplemented with 10% fetal bovine serum (FBS). The human embryonic kidney (HEK293T and HEK293 FRT TRex) cell line was maintained in DMEM high glucose culture medium supplemented with 10% fetal bovine serum (FBS).
HepG2 cells were cultured in DMEM supplemented with 10% fetal bovine serum and 2 mM L-glutamine at 37°C under 5% CO2.
Viable cells were counted with a hemocytometer immediately before each experiment. Experiments were done in triplicate. First, 100 μL of MCF7 cells at the density of 50,000 cells/mL were seeded in a 96-well plate (5,000 cells/well), which was incubated at 37 °C and 5% CO2 atmosphere for 24 h. The compounds were dissolved in DMSO (dimethyl sulfoxide) to make drug stocks (10 mM). The stock solutions were diluted with the complete DMEM high glucose culture medium to make a series of gradient fresh working solutions right before each test. Subsequently, the cells were treated with 100 μL of the freshly made gradient working solution in a total volume of 200 μL/well for 72 h. After that, the media were discarded and 200 μL of the fresh complete medium containing 10% of MTT stock solution (5 mg/mL) was added to each well. The plate was then incubated at 37 °C and 5% CO2 for 3 h. Next, 180 μL of the medium was discarded from each well , and 180 μL of DMSO was added to each well to dissol ve formazan crystals. Absorbance of formazan was detected by a microplate reader (BioTek Synergy H1) at 570 nm with 650 nm as the reference wavelength. The percentage of viability compared to the negative control (DMSO-treated cells) was determined . GraphPad Prism 6 software was used to make a plot of %
(In general: Formazan colour is commonly taken as a measure of viable cells.)

For the next data set, the system named is MDA-MB-231. Put plainly: AlamarBlue cytotoxicity assay, MDA-MB-231. It counts as cell-based, human. The following applies: Homo sapiens; MDA-MB-231, 72 h, AlamarBlue; read-out: Cytotoxicity (IC50). How it is done:
as §1, §2, §3, §4

A further data set deals with HCT116. Put plainly: cells. In kind it is cell-based. The following applies: Homo sapiens, HCT-116; HCT116, 72 h, Alamar Blue, assayed separately; read-out: Cytotoxicity (IC50). On the procedure:
as §1
as §2, with “nm. For HCT116 WT and mutant lines, cells were seeded at 1000 cells/ well in complete McCoys medium. Compounds were diluted from a DMSO stock into culture medium as described above. Cells were treated for 96 h, then viability measured with AlamarBlue, detected using the conditions described but with a BMG Fluostar Optima Microplate Reader. The percentage of viability compared to the negative control (DMSO-treated cells) was determined.” for “nm.”
HCT116 and HEK293T. Viable cells were counted using an automated cell counter (BioRad TC20) before each experiment. […] Emission of each well at 620 nm was detected by a microplate reader (Perkin Elmer EnSpire) at excitation 580 nm. The percentage of viability compared to the negative control (DMSO -treated cells) was determined. […]
Figure S1. […] (C) HCT116 colon carcinoma cells were treated with increasing concentrations of analogues 8, 14, 15, CT8, ipomoeassin F or carrier (0.1% DMSO) and cell viability was assessed at 72 h by the Alamar Blue assay (mean ± S.D., n = 4). […]

The next data set deals with HCT-116 cells. The data set can be described thus: Metabolic labelling of nascent proteins in HCT116 cells. It counts as cell-based, human. To be noted: HCT-116, 1 μM, 35S labelling. On the procedure: Metabolic Labelling Assays in HCT116 Cells
HCT116 cells were counted using an automated cell counter (BioRad TC20) immediately prior to each experiment. 3 ml of HCT116 cells at a density of 0.166x10^6 cells/mL were seeded to 6-well plates (0.5x10^6 cells/well) and then incubated at 37 °C and 5% CO 2 for 24 h. The compounds were dissolved in DMSO to make drug stocks (10 mM). The stock solutions were diluted with DMEM high glucose culture medium lacking methionine and cysteine to make a fresh working solution immediately prior to each test. Cells were washed twice and 1ml of fresh DMEM lacking methionine and cysteine was added to each well.
Subsequently, the cells were treated with 250 µl of compound solutions in a total volume of 1 ,250 µl/well.
The plate was then incubated at 37 °C and 5% CO 2 for 30 min before 100 µCi 35S-labelled methionine/cysteine was added (Expre35s35s protein labelling mix). Plates were incubated for a further 30 min, then media collected and cells harvested by scraping after four washes in ice-cold PBS. Total protein was acquired by RIPA extraction from the cell pellet, cytoplasmic fraction was acquired by partial permeabilization of the outer cell membranes with 0.15% Digitonin followed by centrifugation, secreted proteins were acquired by TCA precipitation of the media. […]

The subject of a further data set is HepG2 cells. Put plainly: Pulse-chase analysis of protein secretion in HepG2 cells. It counts as cell-based, human. To be noted: HepG2; 100 nM Ipom-F or 42 nM mycolactone 13.5 h; 100 nM bortezomib 2 h. How it is done: Pulse‐Chase Analysis of Protein Secretion in HepG2 Cells
The secretion assay was performed using a pulse–chase approach as described previously.20 HepG2 cells were treated with DMSO, 100 nM compound 8, 100 nM Ipom-F or […] mycolactone for 13.5 h before initiating the experiment, whereas pre-treatment with bortezomib 100 nM (Stratech) or 2.5 μg/ml brefeldin A were performed for 2 h and 1 h, respectively. Cells were starved in Met‐ and Cys‐free DMEM (Invitrogen) for 20 min at 37°C. Labeling was initiated by addition of fresh starvation medium containing […] [35S]Met and [35S]Cys protein labeling mix (Perkin Elmer; specific activity >1,000 Ci/mmol) for 15 min. After washing with PBS, cells were incubated in serum‐free DMEM supplemented with excess unlabeled L‐Met and L‐Cys (2 mM final concentration) for 2 h. The compounds were included throughout the starvation, pulse and chase. Secreted proteins in the media were recovered by precipitation with 13% trichloroacetic acid, washed in acetone and dissolved in 2x sample buffer. Cells were solubilized with Triton X‐100 lysis buffer (20 mM Tris, pH 7.5, 150 mM NaCl, 1% TX-100, 1 mM EDTA, 1 mM EGTA) supplemented with protease inhibitor cocktail and phenylmethylsulfonyl fluoride. Equal amounts

From paper PMC6627486, “Ipomoeassin F Binds Sec61α to Inhibit Protein Translocation” (Journal of the American Chemical Society, 2019) come the findings set out here.

What is called IC50 is the point on the concentration scale where inhibition reaches its midpoint.

Take `C#CCOc1ccc(/C=C/C(=O)O[C@@H]2[C@@H](O)[C@@H]3O[C@H]4[C@H](O[C@@H](CCCCC)CCCCCCC(=O)CCC(=O)OC[C@@H](O3)[C@H]2OC(=O)/C(C)=C/C)O[C@H](C)[C@H](OC(C)=O)[C@@H]4O)cc1` [compound 3]: the IC50 in data set [1] stood at 9.6 nM; with MCF7 it was 22.2 nM; with MDA-MB-231, 6.3 nM.

As for `CCCCC[C@H]1CCCCCCC(=O)CCC(=O)OC[C@H]2O[C@@H](O[C@H]3[C@H](O1)O[C@H](C)[C@H](OC(C)=O)[C@@H]3O)[C@H](O)[C@@H](OC(=O)C(C)CC)[C@@H]2OC(=O)/C=C/c1ccccc1` (stereo partly drawn) [compound 15], the IC50 with HCT116 came out at 480 nM. Also, the “inhibition of production of secreted proteins compared with ipomoeassin F” value with HCT-116 cells is given as “less potently”.

Regarding `C/C=C(\C)C(=O)O[C@@H]1[C@@H](O)[C@@H]2O[C@H]3[C@H](O[C@@H](CCCCC)CCCCCCC(=O)CCC(=O)OC[C@@H](O2)[C@H]1OC(=O)/C=C/c1ccc(OCc2cn(-c4cc5ccc(O)cc5oc4=O)nn2)cc1)O[C@H](C)[C@H](OC(C)=O)[C@@H]3O` [compound 10], the IC50 was determined as 11.3 nM in data set [1], 172 nM with MCF7 and 8.9 nM in the data set on MDA-MB-231.

For the compound `C/C=C(\C)C(=O)O[C@@H]1[C@@H](O)[C@@H]2O[C@H]3[C@H](O[C@@H](CCCCC)CCCCCCC(=O)CCC(=O)OC[C@@H](O2)[C@H]1OC(=O)/C=C/c1ccc(OCc2cn(CCOCCOCCOCCNc4ccc([N+](=O)[O-])c5nonc45)nn2)cc1)O[C@H](C)[C@H](OC(C)=O)[C@@H]3O` [compound 11], the figures for the IC50 (in data set [1]; in the data set with MCF7; in the data set with MDA-MB-231) were 2 nM, 21.1 nM and 2.8 nM, respectively.

Regarding `CC(C)C[C@H](NC(=O)[C@H](Cc1ccccc1)NC(=O)c1cnccn1)B(O)O` [bortezomib, reference compound], in the data set on HepG2 cells, the “secretory proteins in cell media” value was “had no effect”.
